Reference: PubChem BioAssay AID1963829 (Molecular Pharmacology Branch, DTP, NCI, 2024)

Tested on: 935938-334-R-J1-PDC complex spheroid viability
Test: Anticancer human tumor 935938-334-R-J1-PDC patient-derived small intestine adenocarcinoma cell line growth inhibition [POLQ]
Conditions: for IC50: curve of first compound; for viability, T/C: stronger effect = lower value
Procedure, shortened: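 Patient-derived tumour cells were co-cultured with HUVEC and mesenchymal stem cells as multicellular spheroids at 37 °C. They were treated with POLQ inhibitors (novobiocin, ART-558, RP6685) alone or combined with other agents. Top concentrations were at or near clinical Cmax (otherwise 10 microM; SN-38 at 1 microM), decreasing in half-log steps.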
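Further: spheroids exposed to drugs for seven days before viability read.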
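Wherever viability, T/C is given: 100% = DMSO vehicle control wells.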

Which IC50 (second compound 0.0316 µM) does the source give for `Cn1ncnc1[C@H]1c2n[nH]c(=O)c3cc(F)cc(c23)N[C@@H]1c1ccc(F)cc1` + Nc1ccc(C#CCN(C(=O)Cc2ncc(C(F)(F)F)cc2C(F)(F)F)c2ccc(F)cc2)nn1 here?
Its IC50 is greater than 100 nM.

And the IC50 (second compound 0.1 µM)?
Its IC50 is greater than 100 nM.

What about the IC50 (second compound 0.316 µM) of the same compound?
The IC50 was greater than 100 nM.

And the IC50 (second compound 1 µM)?
The IC50 was greater than 100 nM.

And the IC50 (second compound 3.16 µM)?
Its IC50 is greater than 100 nM.

And the IC50 (second compound 10 µM)?
The IC50 was greater than 100 nM.

And the viability, T/C (second compound 0.0316 µM, first compound 0.000316 µM)?
The viability, T/C was 98%.

What about the viability, T/C (second compound 0.0316 µM, first compound 0.001 µM) of the same compound?
The viability, T/C was 106%.

What about the viability, T/C (second compound 0.0316 µM, first compound 0.00316 µM) of the same compound?
The viability, T/C was 94.5%.

What about the viability, T/C (second compound 0.0316 µM, first compound 0.01 µM) of the same compound?
The viability, T/C was 73.1%.

What about the viability, T/C (second compound 0.0316 µM, first compound 0.0316 µM) of the same compound?
The viability, T/C was 83.9%.

What about the viability, T/C (second compound 0.0316 µM, first compound 0.1 µM) of the same compound?
The viability, T/C was 101%.

What about the viability, T/C (second compound 0.1 µM, first compound 0.000316 µM) of the same compound?
Its viability, T/C is 68%.

And the viability, T/C (second compound 0.1 µM, first compound 0.001 µM)?
The viability, T/C was 103%.

And the viability, T/C (second compound 0.1 µM, first compound 0.00316 µM)?
The viability, T/C was 88.4%.

And the viability, T/C (second compound 0.1 µM, first compound 0.01 µM)?
The viability, T/C was 97.9%.

What about the viability, T/C (second compound 0.1 µM, first compound 0.0316 µM) of the same compound?
The viability, T/C was 86.5%.

What about the viability, T/C (second compound 0.1 µM, first compound 0.1 µM) of the same compound?
The viability, T/C was 92.9%.

What about the viability, T/C (second compound 0.316 µM, first compound 0.000316 µM) of the same compound?
The viability, T/C was 102%.

What about the viability, T/C (second compound 0.316 µM, first compound 0.001 µM) of the same compound?
Its viability, T/C is 104%.

What about the viability, T/C (second compound 0.316 µM, first compound 0.00316 µM) of the same compound?
The viability, T/C was 107%.

What about the viability, T/C (second compound 0.316 µM, first compound 0.01 µM) of the same compound?
Its viability, T/C is 105%.

And the viability, T/C (second compound 0.316 µM, first compound 0.0316 µM)?
The viability, T/C was 106%.

And the viability, T/C (second compound 0.316 µM, first compound 0.1 µM)?
The viability, T/C was 76.9%.

And the viability, T/C (second compound 1 µM, first compound 0.000316 µM)?
The viability, T/C was 95.5%.

What about the viability, T/C (second compound 1 µM, first compound 0.001 µM) of the same compound?
Its viability, T/C is 85.5%.

What about the viability, T/C (second compound 1 µM, first compound 0.00316 µM) of the same compound?
Its viability, T/C is 91.9%.

What about the viability, T/C (second compound 1 µM, first compound 0.01 µM) of the same compound?
The viability, T/C was 79%.

What about the viability, T/C (second compound 1 µM, first compound 0.0316 µM) of the same compound?
The viability, T/C was 96.6%.

And the viability, T/C (second compound 1 µM, first compound 0.1 µM)?
The viability, T/C was 85.1%.

And the viability, T/C (second compound 3.16 µM, first compound 0.000316 µM)?
The viability, T/C was 69%.

And the viability, T/C (second compound 3.16 µM, first compound 0.001 µM)?
The viability, T/C was 81.4%.

And the viability, T/C (second compound 3.16 µM, first compound 0.00316 µM)?
Its viability, T/C is 88.1%.

What about the viability, T/C (second compound 3.16 µM, first compound 0.01 µM) of the same compound?
The viability, T/C was 86.9%.

What about the viability, T/C (second compound 3.16 µM, first compound 0.0316 µM) of the same compound?
Its viability, T/C is 85.1%.

And the viability, T/C (second compound 3.16 µM, first compound 0.1 µM)?
The viability, T/C was 111%.

What about the viability, T/C (second compound 10 µM, first compound 0.000316 µM) of the same compound?
Its viability, T/C is 107%.

And the viability, T/C (second compound 10 µM, first compound 0.001 µM)?
The viability, T/C was 106%.

What about the viability, T/C (second compound 10 µM, first compound 0.00316 µM) of the same compound?
The viability, T/C was 106%.

And the viability, T/C (second compound 10 µM, first compound 0.01 µM)?
The viability, T/C was 94.3%.

What about the viability, T/C (second compound 10 µM, first compound 0.0316 µM) of the same compound?
The viability, T/C was 99.5%.

And the viability, T/C (second compound 10 µM, first compound 0.1 µM)?
Its viability, T/C is 92%.
